Patent US20220106289A1, “NLRP3 INHIBITORS” (INFLAZOME LIMITED, priority 2018, published 2022)
Where a name gives a salt, the structure may show the parent alone. Read-outs that look alike come from different tables or passages of the source.

Experiments:
[1] = PK in rats, intravenous administration; assay type: in vivo; details: male, Sprague-Dawley; for AUC / half-life: rat plasma; for clearance / Vd: plasma, rat; for Vd: read-out: Vdss
Method: (§1) Pharmacokinetic parameters were determined in male Sprague Dawley rats (Charles River, UK, 250-300 g; or Vital River Laboratory Animal Technology Co Ltd, Beijing, China, 7-9 weeks old). Animals were individually housed during the study and maintained under a 12 h light/dark cycle. Animals had free access to food and water, except that orally dosed animals were food deprived overnight prior to the study. For intravenous administration, compounds were formulated as a solution in DMSO:PBS [10:90] in 2 mL/kg dosing volume and administered via tail vein. For oral administration, compounds were formulated as a solution in DMSO:water [10:90] in 5 mL/kg dosing volume and administered orally. Serial blood samples (about 200-230 μL) were taken from each animal at each of 8 time-points post dose (0.083, 0.25, 0.5, 1, 2, 4, 8 and 24 h). Samples were held on ice for no longer than 30 minutes before centrifugation (10,000 rpm (8,385 g) for 3 minutes; or 5,696 rpm (3,000 g) for 15 minutes) for plasma generation. Plasma was frozen on dry ice prior to bioanalysis. PK parameters were generated from LC-MS/MS data using Dotmatics or Phoenix WinNonlin 6.3 software.

[2] = PK in rats, oral administration; assay type: in vivo; details: male, Sprague-Dawley; for AUC / Cmax / Tmax / half-life: rat plasma; for CL/F / bioavailability: plasma, rat
Method: as §1

NLRP3 [3] = target: T1, NLRP3 (Homo sapiens, UniProt Q96P20); test: THP-1 cells pyroptosis assay (LPS + nigericin, resazurin read-out); assay type: cell-based; set-up: Seed THP-1 cells (25,000 cells/well) containing 1.0 μg/ml LPS; host or cells: THP-1 cells; details: NLRP3 inhibitory activity, 1 μg/ml LPS, 5 μM nigericin
T1 sequence (Q96P20 whole entry): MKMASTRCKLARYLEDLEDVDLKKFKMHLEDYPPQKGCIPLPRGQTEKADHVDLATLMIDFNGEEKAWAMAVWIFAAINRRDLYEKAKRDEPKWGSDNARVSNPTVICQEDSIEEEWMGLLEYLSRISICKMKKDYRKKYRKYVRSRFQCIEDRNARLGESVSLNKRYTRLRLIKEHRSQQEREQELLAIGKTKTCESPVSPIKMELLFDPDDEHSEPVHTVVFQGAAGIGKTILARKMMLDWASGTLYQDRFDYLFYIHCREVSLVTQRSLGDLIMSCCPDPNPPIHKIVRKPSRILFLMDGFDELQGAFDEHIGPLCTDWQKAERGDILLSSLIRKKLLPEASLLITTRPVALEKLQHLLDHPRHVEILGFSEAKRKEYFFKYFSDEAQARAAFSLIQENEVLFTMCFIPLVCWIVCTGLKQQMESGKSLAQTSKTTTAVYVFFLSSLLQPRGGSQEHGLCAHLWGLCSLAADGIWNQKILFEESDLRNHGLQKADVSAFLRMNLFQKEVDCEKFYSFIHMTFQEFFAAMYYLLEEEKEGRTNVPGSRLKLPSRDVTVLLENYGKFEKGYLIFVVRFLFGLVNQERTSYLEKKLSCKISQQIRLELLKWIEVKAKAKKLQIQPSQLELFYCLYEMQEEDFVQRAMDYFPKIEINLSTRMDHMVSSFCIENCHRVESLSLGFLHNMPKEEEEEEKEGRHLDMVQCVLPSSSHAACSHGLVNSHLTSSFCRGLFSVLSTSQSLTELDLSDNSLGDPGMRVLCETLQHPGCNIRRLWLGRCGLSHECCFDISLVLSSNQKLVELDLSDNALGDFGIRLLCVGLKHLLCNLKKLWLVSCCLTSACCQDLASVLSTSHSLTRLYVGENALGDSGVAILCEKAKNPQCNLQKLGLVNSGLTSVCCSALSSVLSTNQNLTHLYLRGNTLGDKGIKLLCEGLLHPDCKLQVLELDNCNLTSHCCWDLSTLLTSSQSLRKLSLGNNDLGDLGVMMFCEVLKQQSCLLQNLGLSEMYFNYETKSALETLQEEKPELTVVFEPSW
Summary of the method: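 THP-1 cells in serum-free RPMI were primed with 1 μg/ml LPS and incubated 3 h at 37° C with compound, then given 5 μM nigericin for 1 h. After supernatant removal, viability was read by 100 μM resazurin over 1-2 h at 37° C.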

NLRP3 [4] = target: T1, NLRP3; test: Human whole blood IL-1β release assay (LPS + nigericin, AlphaLisa); assay type: cell-based; set-up: Human whole blood in Li-heparin tubes was obtained from healthy donors; from tissue; host or cells: human whole blood from healthy donors; details: NLRP3 inhibitory activity, 1 μg/ml LPS, 10 μM nigericin, read-out: HWB IC50
Method: For systemic delivery, the ability to inhibit NLRP3 when the compounds are present within the bloodstream is of great importance. For this reason, the NLRP3 inhibitory activity of a number of compounds in human whole blood was investigated in accordance with the following protocol. Human whole blood in Li-heparin tubes was obtained from healthy donors from a volunteer donor panel. • 1. […] Incubate for 3 hrs at 37° C., 5% CO2 • 4. Add 10 μl nigericin (Sigma #N7143) (10 μM FAC) to all wells • 5. Incubate for 1 hr at 37° C., 5% CO2 • 6. At the end of the incubation period, spin plates at 300×g for 5 mins to pellet cells and remove 20 μl of supernatant and add to 96-well v-bottom plates for IL-1β analysis (note: these plates containing the supernatants can be stored at -80° C. to be analysed at a later date) • 7. IL-1β was measured according to the manufacturer protocol (Perkin Elmer-AlphaLisa IL-1 Kit A[…]-5000) • 8.

[2H]C([2H])([2H])C([2H])(n1ccc(S(=O)(=O)NC(=O)Nc2c3c(cc4c2CCC4)CCC3)n1)C([2H])([2H])[2H] [Example 20, N-((1,2,3,5,6,7-Hexahydro-s-indacen-4-yl)carbamoyl)-1-(propan-2-yl-d7)-1H-pyrazole-3-sulfonamide, potassium salt]
AUC ([1]; 1 mg/kg): 21.6 µg·h/mL | half-life ([1]; 1 mg/kg): 4.7 h | clearance ([1]; 1 mg/kg): 0.048 L/h/kg | Vd ([1]; 1 mg/kg): 0.25 L/kg

CCn1ccc(S(=O)(=O)NC(=O)Nc2c3c(cc4c2CCC4)CCC3)n1 [Example 45, 1-Ethyl-N-((1,2,3,5,6,7-hexahydro-s-indacen-4-yl)carbamoyl)-1H-pyrazole-3-sulfonamide, sodium salt]
AUC ([2]; 3 mg/kg): 61.6 µg·h/mL | Cmax ([2]; 3 mg/kg): 7.9 µg/mL | Tmax ([2]; 3 mg/kg): 2 h | half-life ([2]; 3 mg/kg): 2.5 h | CL/F ([2]; 3 mg/kg): 0.048 L/h/kg | IC50 (NLRP3 [3]): < 0.25 µM | IC50 (NLRP3 [4]): 1 to 5 µM

COC1(c2cc(S(=O)(=O)NC(=O)Nc3c4c(cc5c3CCC5)CCC4)nn2C)CCC1 [Example 51, N-((1,2,3,5,6,7-Hexahydro-s-indacen-4-yl)carbamoyl)-5-(1-methoxycyclobutyl)-1-methyl-1H-pyrazole-3-sulfonamide]
AUC ([1]; 1 mg/kg): 4.87 µg·h/mL | half-life ([1]; 1 mg/kg): 1 h | clearance ([1]; 1 mg/kg): 0.204 L/h/kg | Vd ([1]; 1 mg/kg): 0.29 L/kg | IC50 (NLRP3 [3]): < 0.25 µM | IC50 (NLRP3 [4]): 0.25 to 0.5 µM

COC(C)(C)c1cc(S(=O)(=O)NC(=O)Nc2c(C(C)C)cc(Cl)cc2C(C)C)nn1C [Example 83, N-((4-Chloro-2,6-diisopropylphenyl)carbamoyl)-5-(2-methoxypropan-2-yl)-1-methyl-1H-pyrazole-3-sulfonamide]
AUC ([1]; 1 mg/kg): 1.13 µg·h/mL | half-life ([1]; 1 mg/kg): 3.9 h | clearance ([1]; 1 mg/kg): 0.888 L/h/kg | Vd ([1]; 1 mg/kg): 2.23 L/kg | AUC ([2]; 1.3 mg/kg): 2.75 µg·h/mL | Cmax ([2]; 1.3 mg/kg): 0.468 µg/mL | Tmax ([2]; 1.3 mg/kg): 3.17 h | half-life ([2]; 1.3 mg/kg): 3.7 h | CL/F ([2]; 1.3 mg/kg): 0.51 L/h/kg | bioavailability ([2]; 1.3 mg/kg): > 100% | IC50 (NLRP3 [3]): < 0.25 µM | IC50 (NLRP3 [4]): 1 to 5 µM

COC(C)(C)c1cc(S(=O)(=O)NC(=O)Nc2c3c(cc4c2CCC4)CCC3)nn1C [Example 39, N-((1,2,3,5,6,7-Hexahydro-s-indacen-4-yl)carbamoyl)-5-(2-methoxypropan-2-yl)-1-methyl-1H-pyrazole-3-sulfonamide]
AUC ([1]; 3 mg/kg): 3.84 µg·h/mL | half-life ([1]; 3 mg/kg): 4 h | clearance ([1]; 3 mg/kg): 0.786 L/h/kg | Vd ([1]; 3 mg/kg): 0.9 L/kg | AUC ([2]; 3 mg/kg): 3.92 µg·h/mL | Cmax ([2]; 3 mg/kg): 1.37 µg/mL | Tmax ([2]; 3 mg/kg): 0.83 h | half-life ([2]; 3 mg/kg): 2.2 h | CL/F ([2]; 3 mg/kg): 0.78 L/h/kg | bioavailability ([2]; 3 mg/kg): > 100% | IC50 (NLRP3 [3]): < 0.25 µM | IC50 (NLRP3 [4]): 0.5 to 1 µM

NC/C(=C\F)COc1ccc(S(=O)(=O)NC(=O)Nc2c3c(cc4c2CCC4)CCC3)cc1 [Example 17, 4-((2-(Aminomethyl)-3-fluoroallyl)oxy)-N-((1,2,3,5,6,7-hexahydro-s-indacen-4-yl)carbamoyl)benzenesulfonamide, 2,2,2-trifluoroacetate salt]
IC50 (NLRP3 [3]): 0.25 to 0.5 µM | IC50 (NLRP3 [4]): 1 to 5 µM

CC(C)n1ccc(S(=N)(=O)NC(=O)Cc2c3c(cc4c2CCC4)CCC3)n1 (centres unmarked) [Example 24, 2-(1,2,3,5,6,7-Hexahydro-s-indacen-4-yl)-N-(1-isopropyl-1H-pyrazole-3-sulfonimidoyl)acetamide]
IC50 (NLRP3 [3]): 1 to 5 µM | IC50 (NLRP3 [4]): > 10 µM

Cc1cc(CN(C)C)cc(S(=O)(=O)NC(=O)Nc2c3c(cc4c2CCC4)CCC3)c1 [Example 57, 3-((Dimethylamino)methyl)-N-((1,2,3,5,6,7-hexahydro-s-indacen-4-yl)carbamoyl)-5-methylbenzenesulfonamide, sodium salt]
IC50 (NLRP3 [3]): < 0.25 µM | IC50 (NLRP3 [4]): 1 to 5 µM

CC(C)c1cc(F)cc(C(C)C)c1CC(=O)NS(=O)(=O)c1ccc(CN(C)C)cc1 [Example 33, N-((4-((Dimethylamino)methyl)phenyl)sulfonyl)-2-(4-fluoro-2,6-diisopropylphenyl)acetamide, 2,2,2-trifluoroacetate salt]
IC50 (NLRP3 [3]): 1 to 5 µM | IC50 (NLRP3 [4]): 1 to 5 µM

CC(C)n1nc(S(=O)(=O)NC(=O)Nc2c3c(cc4c2CCC4)CCC3)cc1F [Example 62, 5-Fluoro-N-((1,2,3,5,6,7-hexahydro-s-indacen-4-yl)carbamoyl)-1-isopropyl-1H-pyrazole-3-sulfonamide, sodium salt]
IC50 (NLRP3 [3]): < 0.25 µM | IC50 (NLRP3 [4]): > 10 µM

CC(C)n1cnc(S(=O)(=O)NC(=O)Nc2c3c(cc4c2CCC4)CCC3)n1 [Example 46, N-((1,2,3,5,6,7-Hexahydro-s-indacen-4-yl)carbamoyl)-1-isopropyl-1H-1,2,4-triazole-3-sulfonamide, sodium salt]
AUC ([1]; 1 mg/kg): 10 µg·h/mL | half-life ([1]; 1 mg/kg): 4 h | clearance ([1]; 1 mg/kg): 0.102 L/h/kg | Vd ([1]; 1 mg/kg): 0.45 L/kg | IC50 (NLRP3 [3]): 0.25 to 0.5 µM | IC50 (NLRP3 [4]): 0.5 to 1 µM

CC(C)c1cc(F)cc(C(C)C)c1NC(=O)NS(=O)(=O)c1ccn(C(C)C)n1 [Example 77, N-((4-Fluoro-2,6-diisopropylphenyl)carbamoyl)-1-isopropyl-1H-pyrazole-3-sulfonamide, sodium salt]
IC50 (NLRP3 [3]): 1 to 5 µM | IC50 (NLRP3 [4]): 5 to 10 µM

O=C(Nc1c2c(cc3c1CCC3)CCC2)NS(=O)(=O)c1ccn(CC(F)F)n1 [Example 63, 1-(2,2-Difluoroethyl)-N-((1,2,3,5,6,7-hexahydro-s-indacen-4-yl)carbamoyl)-1H-pyrazole-3-sulfonamide, sodium salt]
IC50 (NLRP3 [3]): < 0.25 µM | IC50 (NLRP3 [4]): 1 to 5 µM

CN(C)CC1(n2ccc(S(=O)(=O)NC(=O)Nc3c4c(cc5c3CCC5)CCC4)n2)CCC1 [Example 60, 1-(1-((Dimethylamino)methyl)cyclobutyl)-N-((1,2,3,5,6,7-hexahydro-s-indacen-4-yl)carbamoyl)-1H-pyrazole-3-sulfonamide]
IC50 (NLRP3 [3]): < 0.25 µM | IC50 (NLRP3 [4]): < 0.25 µM

Cn1nc(S(=O)(=O)NC(=O)Nc2c3c(cc4c2CCC4)CCC3)cc1CO [Example 84, N-((1,2,3,5,6,7-Hexahydro-s-indacen-4-yl)carbamoyl)-5-(hydroxymethyl)-1-methyl-1H-pyrazole-3-sulfonamide]
IC50 (NLRP3 [3]): 0.25 to 0.5 µM | IC50 (NLRP3 [4]): 0.5 to 1 µM
